Measurements as given in patent US11078164B1, “PTEN binding compounds, formulations, and uses thereof” (University of South Florida, priority 2017, dated 2021).
Entries after “also recorded” stand apart in the source; their conditions may differ.

Tests used:
Format in all cases: cell-based
p-AKT (Ser473) = experiment: Immunoblot of p-AKT (Ser473) in treated A549 cells; details: 6 hours; for expression of p-AKT (Ser473), immunoblot: 40 μM, n=3; for decrease in phosphorylated, active form of AKT (pAKT-Ser473): about 40 μM
Method: (§1) PTEN antagonizes PI3K/AKT/S6K pathway activation via its lipid phosphatase function (Stambolic et al., 1998, Cell, October 2; 95(1):29-39, Sun H., et al., 1999, Proc Natl Acad Sci USA. 1999 May 25; 96(11):6199-204 and Song, M. S. et al., 2012, Molecular Cell Biology 13, 283-296). A549 lung adenocarcinoma cells were treated with either γ-AAPeptide #43 or #9 for 6 hours to determine the activity of PI3K/AKT/S6K downstream pathway effectors. There was about a 30 percent and about 70 decrease in the phosphorylated, active form of AKT (pAKT-Ser473) upon treatment with 40 μM γ-AAPeptide #43 (FIG. 2A) or about 40 μM γ-AAPeptide #9 (FIG. 2B) respectively. […] However, direct allosteric effects of these compounds on the structure and catalytic function of the PTEN enzyme activity remains highly plausible.
(§2) Protein Isolation and Immuno-blotting. For treatment with γ-AAPeptides, A549 cells were grown to about 50-60% confluency in 6-well plates, treated with indicated amount of γ-AAPeptide and allowed to incubate for 6 hours at about 5% CO2 and 37° C. After about 6 hours, media was aspirated and cells were lysed in ice cold IP Lysis Buffer (25 mM Tris-HCl pH 7.4, about 150 mM NaCl, about 1% NP-40, about 1 mM EDTA, about 5% glycerol) supplemented with about 100× protease inhibitor cocktail (Sigma Aldrich, St. Louis, Mo.), phosphatase inhibitor cocktail (final concentration about 10 mM sodium azide, about 10 mM NaF, about 4 mM sodium orthovanadate, about 10 mM sodium-molybdate dehydrate, about 4 mM sodium-tartrate dibasic dehydrate, about 5 mM EDTA disodium dehydrate, about 2 mM imidazole), about 1 mM DTT and about 1 mM PMSF. Samples were sonicated at about 10% amplitude on a digital sonifier (Branson Ultrasonics, Dabury, Conn.), centrifuged at about 14,000 rpm for about 10 minutes and the supernatant was collected. Protein concentration was determined using Bradford Dye Reagent (BioRad, Hercules, Calif.). The remaining supernatant was boiled in about 100 μL of 2× Laemmli Buffer containing about 5% β-mercaptoethanol (Sigma Aldrich, St. Louis, Mo.) and subjected to SDS-PAGE gel analysis, followed by immunoblotting. About 20 μg of total proteins from A549 cell extract were separated on a about 12% SDS-PAGE gel and electro-blotted to nitrocellulose membranes (about 0.45 μm; GE Healthcare, Pittsburgh, Pa.). Blots were blocked with about 5% nonfat dry milk or bovine serum albumin in TBST buffer (about 10 mM Tris, pH about 8, about 150 mM NaCl, about 0.1% Tween 20) and incubated with indicated primary antibodies (Table 1). Peroxidase conjugated mouse or rabbit secondary antibodies were used at dilution of about 1:10,000 (Jackson ImmunoResearch, West Grove, Pa.). […]

A549 cells [1] = experiment: Flow cytometry cell cycle analysis; details: for cell cycle arrest: 24 hour treatment, vs vehicle treated cells
Method: Flow Cytometry Assay for Cell Cycle Analysis. Cell cycle analysis was performed on A549 cells treated with indicated amount of γ-AAPeptide at about 50-60% confluency for about 24 hours. After about 24 hours of indicated γ-AAPeptide treatment, cells were trypsinized and centrifuged at about 2,000 rpm for about 10 minutes. Media and trypsin were aspirated and cells were washed twice with PBS and spun at about 2,000 rpm for about 10 minutes at about 4° C. after each wash. Cells were then stained with trypan blue (Thermo Fisher Scientific, Waltham, Mass.) and counted using a hemocytometer. Cells were resuspended in Phosphate Buffered Saline (PBS) at a density of about 2×10^6 cells/mL. 1 mL of cells was fixed in about 3 mL ice cold absolute ethanol for about 1 hour at about 4° C. After fixing, cells were washed twice with PBS and spun at about 3,000 rpm for about 10 minutes at about 4° C. after each wash. About 1 mL of Propidium Iodide (P1) staining solution (about 3.8 mM sodium citrate, about 40 μg/mL PI and PBS to volume) was added to each cell pellet, along with about 50 μL of RNase A (Qiagen, Hilden, Germany) at a concentration of about 10 μg/mL. Cells were incubated at about 37° C. for about 20 minutes and sub-sequentially stored at 4° C. until analyzed by flow cytometry. Assays were performed in triplicate and reported as mean±S.E. (p value of ≤0.05 was considered to be significant).

A549 cells [2] = experiment: Cell proliferation assay (Cell Counting Kit-8); details: 24 hours treatment; 9000 cells/well; n=6
Method: Proliferation Assays. Cell proliferation studies were performed using the Cell Counting Kit-8 (Dojindo Molecular Technologies, Rockville, Md.). A549 cells were plated in a 96-well plate with a cell density of about 9000 cells/well and cultured in F12K medium as described above. Cells were treated with indicated amount of γ-AAPeptide diluted in F12K media for 24 hours. After 24 hours, final cell numbers were assessed as a function of absorbance at 450 nm of reduced WST-(2-(2-methoxy-4-nitrophenyl)-3-(4-nitrophenyl)-5-(2,4-disulfophenyl)-2H-tetrazolium, monosodium salt).

A549 cells [3] = experiment: ECIS migration / wound closure assay; details: for wound closure efficiency (continuous impedance sensing): A549 cells, 12 hours prior to wounding, vs control cells; for cell migration (ECIS): A549 lung cancer cells
Method: Migration Assay. Migration assay was performed on the ECIS machine (Name, Address). Briefly, A549 cells were grown on electric cell substrate impedance sensing 8-well plate arrays (8W1E; Applied Biophysics, Troy, N.Y.) in F12K media as described above. Confluent cells were treated with media containing γ-AAPeptide at desired concentration for about 12 hours prior to wounding. Cells were wounded using an elevated field pulse of about […] at about 32,000 Hz applied for about 20 seconds, producing a uniform circular lesion of about […] in size, and wound closure was tracked until healing. The impedance (Z) was measured at about 32000 Hz, normalized to its value at the initiation of data acquisition, and plotted as a function of time. Assays were performed in triplicate and reported as mean±S.E. unless stated otherwise (p value of ≤0.05 was considered to be significant).

p-P70 S6K (Thr389) = experiment: Immunoblot of p-P70 S6K (Thr389) in treated A549 cells; details: 40 μM, 6 hours; for expression of p-P70 S6K (Thr389), immunoblot: n=3
Method: as §1, §2

[4] = tested on: PTEN C-terminus (C-tail) cluster (Ser380, Thr382, Thr383, Ser385); experiment: Immunoblot of PTEN C-tail phosphorylation in treated A549 cells; details: about 40 μM
Method: as §1
Protein Isolation and Immuno-blotting. For treatment with γ-AAPeptides, A549 cells were grown to about 50-60% confluency in 6-well plates, treated with indicated amount of γ-AAPeptide and allowed to incubate for 6 hours at about 5% CO2 and 37° C. […] Protein concentration was determined using Bradford Dye Reagent (BioRad, Hercules, Calif.). […]

SMILES | expression of p-AKT (Ser473), immunoblot (p-AKT (Ser473)) | decrease in phosphorylated, active form of AKT (pAKT-Ser473) (p-AKT (Ser473)) | G1 cell population (A549 cells [1]; 40 μM, 24 hours) | G2 phase cell population (A549 cells [1]; 40 μM, 24 hours) | S phase cell population (A549 cells [1]; 40 μM, 24 hours) | cell cycle arrest (A549 cells [1]) | A549 cell proliferation (A549 cells [2]) | wound closure efficiency (continuous impedance sensing) (A549 cells [3]; 30 μM) | cell migration (ECIS) (A549 cells [3]) | reduction of phosphorylated, active form of P70S6K (p-P70S6K-Thr389) levels (p-P70 S6K (Thr389)) | expression of p-P70 S6K (Thr389), immunoblot (p-P70 S6K (Thr389)) | phosphorylation status of the PTEN C-terminus (C-tail) cluster [4] | G1 cell population (A549 cells [1]; 20 μM, 24 hours) | G2 phase cell population (A549 cells [1]; 20 μM, 24 hours) | S phase population (A549 cells [1]; 20 μM, 24 hours) | wound closure efficiency (continuous impedance sensing) (A549 cells [3]; 20 μM)
NCCCC[C@H](N)C(=O)N[C@@H](Cc1ccccc1)CN(CC(=O)NCc1ccc(-c2ccccc2)cc1)C(=O)CC12CC3CC(CC(C3)C1)C2 [#43] | significant decrease | ~30% | increase | decreased | decreased | arrest cells in G1 phase | reduced A549 cell proliferation in a dose dependent manner; also recorded: Dose-dependent inhibition | decrease in wound closure efficiency | inhibit cell migration | about 75% | significant decrease | did not appear to alter |  |  |  | 
NCCCC[C@H](N)C(=O)N[C@@H](Cc1ccccc1)CN(CC(=O)N(Cc1cccc2ccccc12)Cc1cccc2ccccc12)C(=O)C[C@]12CC3C[C@H](C[C@H](C3)C1)C2 [#9] | significant decrease | about 70% |  |  |  | arrested the cell cycle in both G1 and G2 phases | reduced A549 cell proliferation in a dose dependent manner; also recorded: Dose-dependent inhibition |  | inhibit cell migration | about 55% | significant decrease | did not appear to alter | increase | increase | decreased | decrease in wound closure efficiency
